Active and inactive are the calls of the source.
Tests used:
[1] = target: T1, Calpain-2 catalytic subunit (Sus scrofa, UniProt P43367); experiment: pig calpain II inhibitor potency, dose response, biochemical, fluorogenic peptide substrate (AID 1420); type: functional
T1 sequence (P43367 whole entry): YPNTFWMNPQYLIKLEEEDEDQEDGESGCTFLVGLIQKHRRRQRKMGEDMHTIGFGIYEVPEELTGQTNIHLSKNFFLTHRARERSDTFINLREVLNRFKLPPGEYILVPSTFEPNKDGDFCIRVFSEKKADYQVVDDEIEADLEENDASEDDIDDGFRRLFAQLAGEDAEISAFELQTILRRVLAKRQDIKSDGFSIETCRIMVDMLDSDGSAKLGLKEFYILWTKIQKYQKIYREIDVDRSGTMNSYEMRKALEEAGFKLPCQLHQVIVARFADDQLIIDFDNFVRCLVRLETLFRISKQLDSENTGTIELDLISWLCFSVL

X-box-binding protein 1 = X-box-binding protein 1 (Homo sapiens, UniProt P17861); type: functional, Cricetulus griseus;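 further: confirmatory dose-response counter-screen serving a CHOP assay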
Vero = Vero cell cytotoxicity, cytotoxicity control for flavivirus capping enzyme inhibitors (AID 588742); type: functional; settings: Chlorocebus sabaeus
[2] = HeLa cell cytotoxicity, dose response, cytotoxicity control for MgcRacGAP inhibitor project (AID 624300); type: functional
[3] = target: T2, Rac GTPase-activating protein 1 (Homo sapiens, UniProt Q9H0H5); experiment: MgcRacGAP GTPase-activating activity inhibitors, confirmation, biochemical, ADP Hunter fluorescence, primary and confirmatory (AID 624330); type: functional
T2 sequence (Q9H0H5 whole entry): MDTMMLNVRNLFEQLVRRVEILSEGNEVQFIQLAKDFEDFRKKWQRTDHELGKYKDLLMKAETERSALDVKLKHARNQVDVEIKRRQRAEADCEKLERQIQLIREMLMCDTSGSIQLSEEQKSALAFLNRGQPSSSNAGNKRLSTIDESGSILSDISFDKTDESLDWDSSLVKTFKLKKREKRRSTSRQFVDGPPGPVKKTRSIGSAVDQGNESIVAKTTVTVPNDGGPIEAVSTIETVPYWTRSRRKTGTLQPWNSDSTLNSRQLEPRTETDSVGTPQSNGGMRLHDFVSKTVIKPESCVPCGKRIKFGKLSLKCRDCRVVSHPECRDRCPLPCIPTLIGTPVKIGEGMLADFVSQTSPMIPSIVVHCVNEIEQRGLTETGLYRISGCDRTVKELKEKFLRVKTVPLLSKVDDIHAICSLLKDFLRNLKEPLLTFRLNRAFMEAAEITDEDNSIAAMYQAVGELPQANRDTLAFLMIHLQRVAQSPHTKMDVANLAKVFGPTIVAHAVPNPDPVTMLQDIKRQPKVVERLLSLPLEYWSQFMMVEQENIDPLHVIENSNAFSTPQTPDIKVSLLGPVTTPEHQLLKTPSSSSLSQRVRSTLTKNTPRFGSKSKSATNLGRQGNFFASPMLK

Protein Tat = Protein Tat (Human immunodeficiency virus type 1 group M subtype B (isolate HXB2)(HIV-1), UniProt P04608); type: functional;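 further: tat binding to TAR RNA read out by fluorescence polarization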
[4] = THP-1 cell cytotoxicity, dose response, cytotoxicity control for Vif-APOBEC3G degradation inhibitor project, THP-1 cells (AID 1117359); type: functional; settings: Human immunodeficiency virus 1, THP-1
[5] = Vero cell cytotoxicity, dose response, cytotoxicity control for Vif-APOBEC3G degradation inhibitor project, Vero cells (AID 1117358); type: functional; settings: Human immunodeficiency virus 1, Vero
Estrogen receptor = target: T3, Estrogen receptor (Homo sapiens, UniProt P03372);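 further: potency for inhibiting coactivator peptide recruitment to the receptor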
T3 sequence (P03372 whole entry): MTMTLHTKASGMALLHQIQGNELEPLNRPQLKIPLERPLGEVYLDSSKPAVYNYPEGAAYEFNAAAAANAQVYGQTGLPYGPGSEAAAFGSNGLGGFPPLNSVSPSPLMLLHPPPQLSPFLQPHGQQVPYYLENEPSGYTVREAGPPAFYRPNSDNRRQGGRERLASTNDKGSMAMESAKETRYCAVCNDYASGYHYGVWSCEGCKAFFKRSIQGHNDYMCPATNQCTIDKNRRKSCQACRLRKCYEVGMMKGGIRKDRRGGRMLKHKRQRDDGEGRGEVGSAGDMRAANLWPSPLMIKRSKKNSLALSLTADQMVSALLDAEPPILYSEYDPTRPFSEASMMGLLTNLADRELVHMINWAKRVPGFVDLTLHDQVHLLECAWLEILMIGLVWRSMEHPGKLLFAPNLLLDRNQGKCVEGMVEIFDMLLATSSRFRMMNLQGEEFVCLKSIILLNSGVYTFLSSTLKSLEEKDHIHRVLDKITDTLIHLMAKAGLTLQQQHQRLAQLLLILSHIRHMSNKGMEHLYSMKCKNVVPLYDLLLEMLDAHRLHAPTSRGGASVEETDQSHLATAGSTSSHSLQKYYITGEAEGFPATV

[6] = target: Protein-tyrosine kinase 2-beta (Homo sapiens, UniProt Q14289);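 further: potency of inhibitors of PYK2 kinase phosphorylation of poly-GT substrate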
[7] = Concentration-dependent survival of SW480 colon cancer line, luminescence detection with CellTiter-Glo, half-maximal inhibitory concentration (AID 1117338); type: functional
[8] = RKO cell viability reduction, dose response, CellTiter-Glo luminescence (AID 1117322); type: functional
[9] = cytotoxicity toward HCT116 cells – cell-based, CellTiter-Glo luminescence, IC50, dose response (AID 1117332); type: functional; settings: HCT-116
[10] = half-maximal inhibitory concentration for glucagon-like peptide-1 release, STC-1 cell line, dose-response (AID 1117345); type: functional, cell-based
[11] = cytotoxicity toward Colo320 cells – cell-based, CellTiter-Glo luminescence, IC50, dose response (AID 1117334); type: functional; settings: COLO 320
[12] = cytotoxicity toward HT-29 cells – cell-based, CellTiter-Glo luminescence, IC50, dose response (AID 1117330); type: functional
[13] = HCT116 cell viability decrease, GSK3B pretreatment – CellTiter-Glo, IC50, dose response (AID 1117339); type: functional; settings: HCT-116
[14] = Glucagon-like peptide 1 release potency, NCI-H716 cell line, dose-response, half-maximal inhibitory concentration (AID 1117344); type: functional, cell-based
HEK293 [15] = experiment: NOD1 signaling inhibitors, primary screen, cell-based, luminescence, uHTS (AID 1578); type: functional; settings: Homo sapiens
[16] = target: E3 ubiquitin-protein ligase Mdm2 (Homo sapiens, UniProt Q00987); experiment: enhancers of MDM2-luciferase reporter signal, concentration-effect titration, project on inhibitors of MDM2 ubiquitin ligase, cellular assay, luminescent readout, 384-well plate format (AID 1394); type: functional;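 further: MDM2 E3 inhibitors raise luminescence so EC50 is for signal enhancement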
BJ [17] = experiment: cytotoxicity toward BJ-TERT fibroblasts, dose response, cell-based, RAS-independent, luminescence (AID 1933); type: functional; settings: Homo sapiens
HEK293 [18] = experiment: cells; type: functional, cell-based; settings: Homo sapiens
BJ [19] = experiment: cells; type: functional, cell-based; settings: Homo sapiens
HEK293 [20] = experiment: cells; type: functional, cell-based; settings: Homo sapiens; remark: listed apart in the source
[21] = target: Nucleotide-binding oligomerization domain-containing protein 2 (Homo sapiens, UniProt Q9HC29); experiment: NOD2 signaling inhibitors, cell-based, luminescence, uHTS, HEK293 (AID 1566); type: functional
HEK293 [22] = experiment: NOD2 signaling inhibitors in MDP-stimulated cells, cell-based, uHTS, luminescence (AID 2001); type: functional; settings: Homo sapiens
HEK293 [23] = experiment: cells; type: functional, cell-based; settings: Homo sapiens; remark: listed apart in the source
BJ [24] = experiment: cytotoxicity toward BJ-TERT-LT-ST fibroblasts, dose response, cell-based, RAS-independent, luminescence (AID 1935); type: functional; settings: Homo sapiens;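 further: BJ fibroblasts immortalized with TERT plus LT and ST oncogenes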
[25] = cytotoxicity toward DRD oncogenic fibroblasts, dose response, cell-based, non-viral oncogenic, luminescence (AID 1934); type: functional; settings: Homo sapiens
[26] = target: Beta-2 adrenergic receptor (Homo sapiens, UniProt P07550); experiment: beta2AR agonists driving receptor internalization, dose response, cell-based, FAP fluorogen, flow cytometry, cherry pick 1 (AID 588763); type: functional
Melanocortin receptor 4 = Melanocortin receptor 4 (Homo sapiens, UniProt P32245); experiment: MC4R antagonist potency on cAMP, dose response, cell-based, TR-FRET, biased antagonists (AID 602298); type: functional;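 further: antagonist potency against agonist-stimulated cAMP production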
[27] = nonselective inhibitors of cellular cAMP signaling, dose response, counter-screen for MC4R biased antagonist project, cell-based, TR-FRET cAMP detection (AID 602305); type: functional;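 further: U2OS cells stimulated with forskolin near its EC80 as the cAMP inducer; potency is for inhibition of forskolin-stimulated cAMP signaling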
Estrogen receptor beta = Estrogen receptor beta (Homo sapiens, UniProt Q92731);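 further: recombinant ER-beta bound to coactivator SRC1 peptide in presence of estradiol agonist; inhibitors block coactivator peptide binding and lower the FRET signal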
[28] = target: DNA dC->dU-editing enzyme APOBEC-3A (Homo sapiens, UniProt P31941); experiment: Dose Response confirmation of small molecule APOBEC3A DNA Deaminase Inhibitors via a fluorescence-based single-stranded DNA deaminase assay. [Related pubchem assays (depositor defined):AID493011, AID493024]; type: functional
[29] = target: DNA dC->dU-editing enzyme APOBEC-3G (Homo sapiens, UniProt Q9HC16); type: functional;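 further: Dose-response counterscreen measuring inhibition of APOBEC3G DNA deaminase activity, run while confirming APOBEC3A inhibitors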
[30] = target: T4, Carboxy-terminal domain RNA polymerase II polypeptide A small phosphatase 1 (Homo sapiens, UniProt Q9GZU7); experiment: inhibitors of CTDSP1, concentration-response testing, biochemical assay, absorbance-based, actives from ultra-high-throughput screening (AID 540297); type: functional
T4 sequence (Q9GZU7 whole entry): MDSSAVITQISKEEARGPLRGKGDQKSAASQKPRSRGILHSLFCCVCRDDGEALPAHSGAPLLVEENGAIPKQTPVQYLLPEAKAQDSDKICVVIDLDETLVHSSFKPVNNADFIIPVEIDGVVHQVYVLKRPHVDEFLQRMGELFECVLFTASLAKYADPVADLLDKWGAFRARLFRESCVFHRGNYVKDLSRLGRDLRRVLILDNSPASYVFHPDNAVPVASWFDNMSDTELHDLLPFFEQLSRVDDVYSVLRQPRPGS

Sequence of Melanocortin receptor 4 (P32245 whole entry): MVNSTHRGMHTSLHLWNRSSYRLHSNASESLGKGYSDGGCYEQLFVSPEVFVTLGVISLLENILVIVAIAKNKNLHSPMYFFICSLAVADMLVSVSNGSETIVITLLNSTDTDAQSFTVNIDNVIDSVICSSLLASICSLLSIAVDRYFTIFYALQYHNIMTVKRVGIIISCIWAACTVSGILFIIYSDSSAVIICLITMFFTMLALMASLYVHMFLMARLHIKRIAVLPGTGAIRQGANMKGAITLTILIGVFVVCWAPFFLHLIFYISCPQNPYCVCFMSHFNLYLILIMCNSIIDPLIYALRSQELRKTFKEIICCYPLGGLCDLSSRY
Sequence of Nucleotide-binding oligomerization domain-containing protein 2 (Q9HC29 whole entry, the tested form may be a part): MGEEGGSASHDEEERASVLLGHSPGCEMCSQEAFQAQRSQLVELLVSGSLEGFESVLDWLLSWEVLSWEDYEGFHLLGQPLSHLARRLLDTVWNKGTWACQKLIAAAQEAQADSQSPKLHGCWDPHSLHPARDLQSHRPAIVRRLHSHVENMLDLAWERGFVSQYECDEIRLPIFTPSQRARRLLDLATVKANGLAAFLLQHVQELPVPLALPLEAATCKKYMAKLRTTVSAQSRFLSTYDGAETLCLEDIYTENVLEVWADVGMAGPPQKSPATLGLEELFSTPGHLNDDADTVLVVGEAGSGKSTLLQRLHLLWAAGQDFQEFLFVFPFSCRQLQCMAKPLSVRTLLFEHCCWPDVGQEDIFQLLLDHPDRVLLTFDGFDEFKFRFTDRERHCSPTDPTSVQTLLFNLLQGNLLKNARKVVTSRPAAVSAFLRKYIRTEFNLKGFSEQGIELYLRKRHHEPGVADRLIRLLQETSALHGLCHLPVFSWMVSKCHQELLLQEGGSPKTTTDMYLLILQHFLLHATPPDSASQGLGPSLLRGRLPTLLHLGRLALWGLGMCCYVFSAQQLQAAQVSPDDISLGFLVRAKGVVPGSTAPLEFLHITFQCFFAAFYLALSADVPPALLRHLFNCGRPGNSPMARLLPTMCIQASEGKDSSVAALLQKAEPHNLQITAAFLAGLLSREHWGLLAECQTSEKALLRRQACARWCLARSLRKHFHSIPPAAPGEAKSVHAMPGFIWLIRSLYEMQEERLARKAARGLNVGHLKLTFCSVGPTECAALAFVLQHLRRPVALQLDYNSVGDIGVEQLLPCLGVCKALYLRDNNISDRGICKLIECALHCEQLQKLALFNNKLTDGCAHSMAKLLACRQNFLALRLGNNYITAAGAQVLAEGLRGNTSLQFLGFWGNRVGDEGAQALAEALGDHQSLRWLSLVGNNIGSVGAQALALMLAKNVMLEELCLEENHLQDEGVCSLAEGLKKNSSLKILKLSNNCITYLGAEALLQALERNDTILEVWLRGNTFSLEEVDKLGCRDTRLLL
Sequence of Protein-tyrosine kinase 2-beta (Q14289 whole entry): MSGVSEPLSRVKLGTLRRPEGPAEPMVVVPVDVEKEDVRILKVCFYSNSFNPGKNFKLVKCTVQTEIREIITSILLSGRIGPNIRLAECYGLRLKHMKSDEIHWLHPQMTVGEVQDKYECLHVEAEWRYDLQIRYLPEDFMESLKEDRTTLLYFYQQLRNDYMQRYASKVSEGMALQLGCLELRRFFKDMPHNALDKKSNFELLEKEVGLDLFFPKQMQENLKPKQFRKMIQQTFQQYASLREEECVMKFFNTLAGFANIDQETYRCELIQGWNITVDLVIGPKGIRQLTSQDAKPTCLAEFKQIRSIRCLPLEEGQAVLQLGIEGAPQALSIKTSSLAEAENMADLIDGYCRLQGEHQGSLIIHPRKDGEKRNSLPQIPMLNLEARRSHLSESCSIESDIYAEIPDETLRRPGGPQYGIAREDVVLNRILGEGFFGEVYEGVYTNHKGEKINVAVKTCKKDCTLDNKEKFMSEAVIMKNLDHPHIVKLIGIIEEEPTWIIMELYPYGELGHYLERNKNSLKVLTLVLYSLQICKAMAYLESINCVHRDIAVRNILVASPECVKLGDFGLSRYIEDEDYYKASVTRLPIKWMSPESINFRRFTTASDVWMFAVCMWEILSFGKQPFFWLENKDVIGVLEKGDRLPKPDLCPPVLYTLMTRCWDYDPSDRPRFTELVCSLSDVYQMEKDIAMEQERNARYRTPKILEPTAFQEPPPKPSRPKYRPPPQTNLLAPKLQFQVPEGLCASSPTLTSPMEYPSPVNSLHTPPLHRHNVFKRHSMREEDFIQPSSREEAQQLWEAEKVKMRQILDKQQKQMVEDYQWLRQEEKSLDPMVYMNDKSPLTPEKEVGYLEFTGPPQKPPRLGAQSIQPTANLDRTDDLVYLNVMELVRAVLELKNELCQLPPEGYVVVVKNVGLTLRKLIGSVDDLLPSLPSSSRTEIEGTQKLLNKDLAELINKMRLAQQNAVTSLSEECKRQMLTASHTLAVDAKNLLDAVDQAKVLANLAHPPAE
Sequence of DNA dC->dU-editing enzyme APOBEC-3A (P31941 whole entry): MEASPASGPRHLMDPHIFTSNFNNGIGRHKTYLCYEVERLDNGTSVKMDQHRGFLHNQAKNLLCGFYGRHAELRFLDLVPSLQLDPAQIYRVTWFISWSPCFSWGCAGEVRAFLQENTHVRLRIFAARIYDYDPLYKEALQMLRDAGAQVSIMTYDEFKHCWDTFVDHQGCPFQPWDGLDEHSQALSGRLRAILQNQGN
Sequence of X-box-binding protein 1 (P17861 whole entry): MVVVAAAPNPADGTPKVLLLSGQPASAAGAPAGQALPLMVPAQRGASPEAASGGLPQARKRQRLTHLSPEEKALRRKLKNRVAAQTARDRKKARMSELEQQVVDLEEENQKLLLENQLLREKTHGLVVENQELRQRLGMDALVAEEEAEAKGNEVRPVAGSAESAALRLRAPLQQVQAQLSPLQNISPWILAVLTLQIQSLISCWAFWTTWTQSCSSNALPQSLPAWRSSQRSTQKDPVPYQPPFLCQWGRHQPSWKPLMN
Sequence of Estrogen receptor beta (Q92731 whole entry): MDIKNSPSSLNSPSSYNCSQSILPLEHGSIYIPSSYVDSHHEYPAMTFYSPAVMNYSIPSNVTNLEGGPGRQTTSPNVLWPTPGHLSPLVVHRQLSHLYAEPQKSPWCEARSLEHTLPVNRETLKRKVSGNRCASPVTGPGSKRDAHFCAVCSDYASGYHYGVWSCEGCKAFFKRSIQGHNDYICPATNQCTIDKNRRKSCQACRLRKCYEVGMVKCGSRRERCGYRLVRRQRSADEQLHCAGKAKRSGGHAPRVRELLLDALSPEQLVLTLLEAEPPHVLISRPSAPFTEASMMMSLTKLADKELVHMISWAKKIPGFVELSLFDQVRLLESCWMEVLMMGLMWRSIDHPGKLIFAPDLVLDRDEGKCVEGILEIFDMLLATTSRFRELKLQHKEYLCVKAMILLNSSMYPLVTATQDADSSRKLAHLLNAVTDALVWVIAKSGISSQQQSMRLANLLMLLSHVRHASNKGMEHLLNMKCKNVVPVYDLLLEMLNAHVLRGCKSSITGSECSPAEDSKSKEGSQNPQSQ
Sequence of E3 ubiquitin-protein ligase Mdm2 (Q00987 whole entry): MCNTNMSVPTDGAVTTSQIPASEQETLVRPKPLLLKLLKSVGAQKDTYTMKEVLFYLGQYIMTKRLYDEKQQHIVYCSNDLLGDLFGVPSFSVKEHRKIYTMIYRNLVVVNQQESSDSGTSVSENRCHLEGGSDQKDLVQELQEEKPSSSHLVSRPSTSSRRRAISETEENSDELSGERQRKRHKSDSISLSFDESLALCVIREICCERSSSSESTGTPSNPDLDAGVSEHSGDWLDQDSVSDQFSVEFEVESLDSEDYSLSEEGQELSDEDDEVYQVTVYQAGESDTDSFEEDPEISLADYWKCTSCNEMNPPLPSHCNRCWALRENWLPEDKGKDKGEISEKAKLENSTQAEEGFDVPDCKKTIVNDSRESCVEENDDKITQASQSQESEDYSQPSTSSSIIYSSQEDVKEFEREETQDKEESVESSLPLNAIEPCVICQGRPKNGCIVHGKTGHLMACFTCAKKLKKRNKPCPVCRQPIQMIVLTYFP
Sequence of Beta-2 adrenergic receptor (P07550 whole entry): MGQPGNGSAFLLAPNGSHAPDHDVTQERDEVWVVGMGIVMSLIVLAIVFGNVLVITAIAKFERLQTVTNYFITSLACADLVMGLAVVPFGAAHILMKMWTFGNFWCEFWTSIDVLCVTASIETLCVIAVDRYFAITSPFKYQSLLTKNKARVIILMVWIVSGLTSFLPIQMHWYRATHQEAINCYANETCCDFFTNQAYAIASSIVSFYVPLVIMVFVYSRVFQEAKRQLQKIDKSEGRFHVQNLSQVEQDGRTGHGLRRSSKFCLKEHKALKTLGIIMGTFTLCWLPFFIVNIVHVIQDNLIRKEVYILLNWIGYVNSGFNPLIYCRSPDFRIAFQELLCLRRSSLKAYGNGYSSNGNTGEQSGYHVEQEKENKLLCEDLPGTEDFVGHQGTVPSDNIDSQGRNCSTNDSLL
Sequence of Protein Tat (P04608 whole entry): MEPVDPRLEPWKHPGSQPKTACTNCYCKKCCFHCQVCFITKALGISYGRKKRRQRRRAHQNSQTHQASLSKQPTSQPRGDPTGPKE
Sequence of DNA dC->dU-editing enzyme APOBEC-3G (Q9HC16 whole entry, the tested form may be a part): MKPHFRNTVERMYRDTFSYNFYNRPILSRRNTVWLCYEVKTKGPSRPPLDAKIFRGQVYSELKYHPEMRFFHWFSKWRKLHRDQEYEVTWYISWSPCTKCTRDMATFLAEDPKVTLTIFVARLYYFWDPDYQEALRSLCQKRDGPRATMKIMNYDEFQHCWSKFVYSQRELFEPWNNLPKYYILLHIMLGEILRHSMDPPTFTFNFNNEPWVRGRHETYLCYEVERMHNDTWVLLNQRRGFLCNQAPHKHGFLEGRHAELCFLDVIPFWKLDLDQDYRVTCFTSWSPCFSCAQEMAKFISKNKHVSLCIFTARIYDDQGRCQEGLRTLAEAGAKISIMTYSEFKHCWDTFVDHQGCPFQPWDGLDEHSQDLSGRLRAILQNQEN

CCOc1cccc(CNc2ccc(O)cc2)c1OCc1ccc(Cl)cc1Cl
IC50 [1]: 8.34 µM (not active)
Absolute IC50 (XBP1) (X-box-binding protein 1): 10 µM
CC50 (Vero): 36.4 µM (active)
CC50 [2]: 85.7 µM (active)
IC50 [3]: 118 µM (active)
IC50 (Protein Tat): > 100 µM (inconclusive)
CC50 [4]: 30.4 µM (active)
CC50 [5]: > 40 µM (active)

O=c1oc2ccccc2n1CCn1c2ccccc2c2nc3ccccc3nc21
IC50 (Estrogen receptor): 17.9 µM (active)
IC50 [6]: 2.08 µM (active)

Oc1ccc(Cl)cc1Cc1ccccc1 [CLOROPHENE]
IC50 [7]: > 20 µM (inactive)
IC50 [8]: > 20 µM (inactive)
IC50 [9]: > 20 µM (inactive)
IC50 [10]: 7.62 µM (inactive)
IC50 [11]: 13 µM (inactive)
IC50 [12]: > 20 µM (inactive)
IC50 [13]: > 6.67 µM (inactive)
IC50 [14]: 33.8 µM (inactive)

O=C(COC(=O)c1ccccc1C(=O)c1ccc(Cl)c([N+](=O)[O-])c1)NC1CCCCCC1
EC50 (HEK293 [15]): 3.78 µM (active)
EC50 [16]: 12.4 µM (not active)
EC50 (BJ [17]): 4.41 µM (active)
IC50 (HEK293 [18]): 1.9 µM (active)
EC50 (BJ [19]): 9.86 µM (inconclusive)
IC50 (HEK293 [20]): 18.3 µM (active)
EC50 [21]: > 20 µM (inactive)
IC50 (HEK293 [22]): 3.13 µM (active)
IC50 (HEK293 [23]): > 20 µM (inactive)
EC50 (BJ [24]): 4.91 µM (inconclusive)
EC50 [25]: 4.47 µM (active)
EC50 [26]: 42.3 µM (inactive)
IC50 (Melanocortin receptor 4): 26.6 µM (inactive)
IC50 [27]: > 64.6 µM (inactive)

CCCCCCNC(=O)c1cc(-c2ccco2)nc2ccccc12
IC50 (Estrogen receptor beta): 2.6 µM (active)
IC50 [28]: 13.6 µM (active)
IC50 [29]: 16 µM (active)
IC50 [30]: 5.1 µM (active)
